Consider 1 molecule from ChEMBL document CHEMBL5727632, “Substituted 1H-imidazo[4,5-b]pyridin-2(3H)-ones and their use as GluN2B receptor modulators” (2020).

The target of the assay is Glutamate receptor ionotropic, NMDA 2B (Homo sapiens, UniProt Q05586+Q13224). Put plainly: Standard cell-based calcium flux assay: NMDA receptors are ion channels that are highly permeable to Ca2+ ions, rendering it possible to monitor NMDA receptor function using cell-based calcium flux assay. In this assay, co-agonists glutamate and glycine are added to cells heterologously expressing human GluN1/GluN2B NMDA receptors to initiate cellular Ca2+ influx. The time course of the changes in intracellular calcium is measured using a fluorescent dye and a FLIPR (Fluorometric Imaging Plate Reader) device.Twenty four hours before measurements, the expression of the NMDA receptors in the stable cell line is induced with Tet-On inducible system in the presence of a non-selective NMDA receptor blocker. On the day of the experiment, cell culture media is carefully washed and the cells are loaded with Calcium 5 Dye Kit (Molecular Devices) in dye loading buffer containing 137 mM NaCl, 4 mM KCl, 2 mM CaCl2, 0.5 mM MgCl2 (standard assay) or 1.5 mM MgCl2 (HTS assay), 10 mM HEPES and 5 mM D-glucose; pH 7.4. […]. On the technique in general: A change in cytosolic calcium serves as a functional read-out for many receptors and channels.
Sequence of Glutamate receptor ionotropic, NMDA 2B (Q13224 whole entry, one chain of several): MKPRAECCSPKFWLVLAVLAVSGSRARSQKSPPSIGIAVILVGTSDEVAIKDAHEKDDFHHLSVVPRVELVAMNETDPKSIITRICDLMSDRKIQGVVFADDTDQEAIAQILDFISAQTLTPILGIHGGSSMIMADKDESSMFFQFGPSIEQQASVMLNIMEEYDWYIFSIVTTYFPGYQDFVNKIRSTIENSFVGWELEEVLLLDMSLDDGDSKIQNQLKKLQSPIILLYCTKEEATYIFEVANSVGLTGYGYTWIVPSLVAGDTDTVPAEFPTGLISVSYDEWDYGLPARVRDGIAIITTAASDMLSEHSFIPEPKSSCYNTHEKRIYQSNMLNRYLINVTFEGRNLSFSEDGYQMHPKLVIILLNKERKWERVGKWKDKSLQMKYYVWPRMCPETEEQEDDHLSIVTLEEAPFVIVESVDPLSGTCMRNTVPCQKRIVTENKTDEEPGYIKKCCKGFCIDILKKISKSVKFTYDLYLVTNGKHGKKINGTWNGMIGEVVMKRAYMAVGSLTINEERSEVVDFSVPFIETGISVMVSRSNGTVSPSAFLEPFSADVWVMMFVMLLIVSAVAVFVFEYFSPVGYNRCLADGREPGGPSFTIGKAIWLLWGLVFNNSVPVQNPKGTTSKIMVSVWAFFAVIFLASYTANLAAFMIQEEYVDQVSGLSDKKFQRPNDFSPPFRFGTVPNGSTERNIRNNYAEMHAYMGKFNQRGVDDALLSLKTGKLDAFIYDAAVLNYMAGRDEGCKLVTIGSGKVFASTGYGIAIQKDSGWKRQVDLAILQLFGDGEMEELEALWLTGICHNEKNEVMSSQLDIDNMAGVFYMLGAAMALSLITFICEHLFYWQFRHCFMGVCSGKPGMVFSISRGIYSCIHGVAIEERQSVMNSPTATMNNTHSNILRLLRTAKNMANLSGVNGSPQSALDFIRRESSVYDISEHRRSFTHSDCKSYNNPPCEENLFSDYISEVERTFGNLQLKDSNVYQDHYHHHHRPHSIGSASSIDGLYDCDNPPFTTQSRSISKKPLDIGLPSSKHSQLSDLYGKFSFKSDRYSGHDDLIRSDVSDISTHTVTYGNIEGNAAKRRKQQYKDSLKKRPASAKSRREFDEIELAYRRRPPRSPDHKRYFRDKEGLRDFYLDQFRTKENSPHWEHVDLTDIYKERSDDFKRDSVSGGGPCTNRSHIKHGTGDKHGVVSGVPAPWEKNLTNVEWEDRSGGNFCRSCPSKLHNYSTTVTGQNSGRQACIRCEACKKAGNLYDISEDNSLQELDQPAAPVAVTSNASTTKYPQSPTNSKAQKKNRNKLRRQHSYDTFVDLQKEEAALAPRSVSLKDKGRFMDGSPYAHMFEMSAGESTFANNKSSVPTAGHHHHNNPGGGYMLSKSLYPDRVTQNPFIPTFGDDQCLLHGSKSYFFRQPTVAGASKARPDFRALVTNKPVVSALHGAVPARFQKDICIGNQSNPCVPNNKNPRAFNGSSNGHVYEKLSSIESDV

By IC50 is commonly meant the point on the concentration scale where inhibition reaches its midpoint. Turning to `Cn1c(=O)n(CC(=O)N2CCC2)c2cc(-c3cc(OCCF)cc(C(F)(F)F)c3)cnc21`, the half-maximal inhibitory concentration (IC50) is 1290 nM.
